Measurements as given in patent US5362497A, “Transdermal therapeutic composition” (priority 1989, dated 1994).
One block for each molecule: values may come before it.

Key:
Format in all cases: in vivo, SD rats
[1] = Molsidomine concentration in plasma after transdermal application (HPLC)
Experimental: The above transdermal therapeutic composition was put on a clipped abdomen of male SD rats (7-week-old, 240 to 270 g, 5 heads) and fixed with a surgical tape. After 1, 2, 4, 6 and 24 hours, the blood was collected from the tail vein, and the concentration of molsidomine in the plasma was determined by HPLC.
On the other hand, 0.5 g of molsidomine was dissolved in 3 g of propylene glycol, and 0.35 g of the solution was absorbed into a rayon web of nonwoven fabric and applied to SD rats in the same manner as mentioned above.

[2] = Vinpocetine concentration in plasma after transdermal application (HPLC)
Experimental: The above transdermal therapeutic composition was put on a clipped abdomen of male SD rats (7-week-old, 240 to 270 g, 4 heads) and fixed with a surgical tape. Just before the administration and after 0.5, 1, 2, 4, 6 and 24 hours, the blood was collected from the tail vein. After the blood was treated with heparin, the plasma was separated. The concentration of vinpocetine in the plasma was determined by HPLC after the plasma was cleaned up by Sep-Pak C18 (Waters).
On the other hand, 0.35 g of 4% aqueous suspension of vinpocetine was absorbed into a web of nonwoven fabric and applied to SD rats in the same manner as mentioned above.

[3] = TRH concentration in plasma after transdermal application (radioimmunoassay); conditions: for concentration at 0.5 h: 0.5 h after administration; for concentration at 1 h: 1 h after administration; for concentration at 2 h: 2 h after administration; for concentration at 4 h: 4 h after administration; for concentration at 6 h: 6 h after administration
Experimental: The above transdermal therapeutic composition was put on a clipped abdomen of male SD rats (7-week-old, 240 to 270 g, 4 heads) and fixed with a surgical tape. After 0.5, 1, 2, 4, 6 and 24 hours, the blood was collected from the tail vein. After the blood was treated with heparin, 50 μl of a reagent (aqueous solution containing 0.01 g/l of 8-hydroxyquinoline sulfate, 0.15 g/l of EDTA-2Na and 0.05 g/l of Tween 20) was added to 0.5 ml of the blood to separate the plasma. The TRH concentration in the plasma was determined by the below-mentioned radioimmunoassay. To 100 μl of the separated plasma were added 100 μl of 0.7% bovine serum albumin, 100 μl of anti-TRH antibody (500-fold dilution) and 100 μl of ^125 I-labeled TRH (about 10000 dpm), and the resulting mixture was incubated at 4° C. for 3 days. The secondary antibody (100 μl of anti-γ-globulin serum and 100 μl of normal rabbit serum) was then added, and the mixture was incubated at 4° C. for 1 day. The supernatant was removed by centrifugation at 3000 rpm, and the radioactivity of the precipitate was determined by a γ counter.
On the other hand, 10% polyvinyl alcohol gel (pH 4, buffered with 0.01M citric acid-0.01M disodium phosphate) containing 2% TRH was formulated to make the diameter and thickness 3.2 cm and 0.1 cm respectively (sticking area: 8 cm^2; TRH content: 16 mg), and applied to SD rats (4 heads) in the same manner as mentioned above. The TRH concentration in the plasma was determined by the radioimmunoassay in the same manner as mentioned above.

[4] = test system: hypertensive reaction induced by angiotensin I; assay: Transdermal absorption test: inhibition of hypertensive reaction induced by angiotensin I in rats
Experimental: Using 9-week-old male SD rats, the transdermal therapeutic tape (6 mg as compound (I)/rat) was applied to a clipped area (6 cm^2) of the abdominal skin and the area of exposure was covered by the occluded dressing method. The transdermal absorption effect was evaluated daily by monitoring the inhibition rate (%) against hypertensive reaction induced by angiotensin I. Angiotensin I was administered in an intravenous dose of 300 ng/kg (rats).
Using 9-week-old male SD rats, the transdermal therapeutic tape (9 mg as compound (I)/rat) was applied to a clipped area (6 cm^2) of the abdominal skin and the area of exposure was covered by the occluded dressing method.

[5] = rat, plasma, topical or ocular, Example 6 composition
[6] = rat, plasma, topical or ocular, comparison: 10% polyvinyl alcohol gel pH 4, 2% TRH (16 mg), 8 cm^2
[7] = Example 1 tape, 6 mg as compound (I)/rat
[8] = Example 2 tape, procedure of Example 1
[9] = Example 3 tape, procedure of Example 1
[10] = Example 4 tape, 9 mg as compound (I)/rat

- concentration of molsidomine in the plasma ([1]; comparison: solution of 0.5 g molsidomine in 3 g propylene glycol, 0.35 g on nonwoven fabric): below the detection limit
- concentration at 1 h ([1]; rat, plasma, topical or ocular, Example 5 composition, 1 h after administration): 123 ng/mL
- concentration at 2 h ([1]; rat, plasma, topical or ocular, Example 5 composition, 2 h after administration): 235 ng/mL
- concentration at 4 h ([1]; rat, plasma, topical or ocular, Example 5 composition, 4 h after administration): 451 ng/mL
- concentration at 6 h ([1]; rat, plasma, topical or ocular, Example 5 composition, 6 h after administration): 322 ng/mL
- concentration at 24 h ([1]; rat, plasma, topical or ocular, Example 5 composition, 24 h after administration): 169 ng/mL
SMILES: CCOC(=O)[N-]c1cn(N2CCOCC2)n[o+]1 [molsidomine, N-ethoxycarbonyl-3-morpholinosydnonimine]
- concentration of molsidomine in the blood (in words) ([1]; Example 5 composition): a high concentration of molsidomine in the blood was observed

- Average concentration in plasma ([2]; Example 7 composition, just before administration): 0 ng/mL
- concentration of vinpocetine in the plasma ([2]; comparison: 0.35 g of 4% aqueous suspension of vinpocetine on nonwoven fabric): below the detection limit
- concentration at 0.5 h ([2]; rat, plasma, topical or ocular, Example 7 composition, 0.5 h after administration): 149 ng/mL
- concentration at 1 h ([2]; rat, plasma, topical or ocular, Example 7 composition, 1 h after administration): 155 ng/mL
- concentration at 2 h ([2]; rat, plasma, topical or ocular, Example 7 composition, 2 h after administration): 80.1 ng/mL
- concentration at 4 h ([2]; rat, plasma, topical or ocular, Example 7 composition, 4 h after administration): 60.7 ng/mL
- concentration at 6 h ([2]; rat, plasma, topical or ocular, Example 7 composition, 6 h after administration): 74.1 ng/mL
- concentration at 24 h ([2]; rat, plasma, topical or ocular, Example 7 composition, 24 h after administration): 64.3 ng/mL
SMILES: CCOC(=O)C1=C[C@]2(CC)CCCN3CCc4c(n1c1ccccc41)[C@@H]32 [vinpocetine, apovincamic acid ethyl ester]
- concentration of vinpocetine in the plasma (in words) ([2]; Example 7 composition): rapidly increased, and the required concentration was maintained during a period of 24 hours

SMILES: NC(=O)[C@@H]1CCCN1C(=O)[C@H](Cc1cnc[nH]1)NC(=O)[C@@H]1CCC(=O)N1 [TRH, L-pyroglutamyl-L-histidyl-L-prolinamide]
- TRH concentration in the plasma (in words) ([3]; Example 6 composition): rapidly increased
- TRH concentration in the plasma (in words) ([3]; comparison: 10% polyvinyl alcohol gel pH 4, 2% TRH (16 mg), 8 cm^2): very low
- concentration at 0.5 h [3, 5]: 59 ng/mL
- concentration at 1 h [3, 5]: 88.9 ng/mL
- concentration at 2 h [3, 5]: 110 ng/mL
- concentration at 4 h [3, 5]: 391 ng/mL
- concentration at 6 h [3, 5]: 326 ng/mL
- concentration at 24 h ([3]; rat, plasma, topical or ocular, Example 6 composition, 24 h after administration): 82.4 ng/mL
- Cmax ([3]; rat, plasma, topical or ocular, Example 6 composition, read-out: maximum concentration in the plasma): ~400 ng/mL
- Tmax ([3]; rat, plasma, topical or ocular, Example 6 composition, read-out: time of maximum concentration in the plasma): 4 h
- concentration at 0.5 h [3, 6]: 8.3 ng/mL
- concentration at 1 h [3, 6]: 8 ng/mL
- concentration at 2 h [3, 6]: 4.5 ng/mL
- concentration at 4 h [3, 6]: 3 ng/mL
- concentration at 6 h [3, 6]: 1.8 ng/mL

- transdermal absorption [4, 7]: sufficiently absorbed transdermally
- transdermal absorption [4, 8]: sufficiently absorbed transdermally
- transdermal absorption [4, 9]: sufficiently absorbed transdermally
- transdermal absorption [4, 10]: sufficiently absorbed transdermally
SMILES: O=C(O)CN1C(=O)[C@@H](N[C@@H](CCCCC2CCNCC2)C(=O)O)CSc2ccccc21 [Compound (I), (R)-3-[(S)-1-carboxy-5-(4-piperidyl)pentyl]amino-4-oxo-2,3,4,5-tetrahydro-1,5-benzothiazepine-5-acetic acid]
- duration of effect (inhibition of hypertensive reactivity induced by angiotensin I) [4, 7]: > 24 h
- initiation time of 80% inhibition against hypertensive reactivity induced by angiotensin I ([4]; Example 1 tape, 6 mg as compound (I)/rat, abdominal skin 6 cm^2, angiotensin I 300 ng/kg i.v.): five
- inhibition against hypertensive reactivity induced by angiotensin I ([4]; Example 1 tape, 6 mg as compound (I)/rat, five hours after administration): 80%
- duration of effect (inhibition of hypertensive reaction by angiotensin I) [4, 8]: > 24 h
- initiation time of 80% inhibition against hypertensive reaction by angiotensin I [4, 8]: three
- inhibition against hypertensive reaction by angiotensin I ([4]; Example 2 tape, three hours after administration): 80%
- inhibition against hypertensive reaction by angiotensin I ([4]; Example 3 tape, five hours after administration): 80%
- duration of effect (inhibition of hypertensive reaction by angiotensin I) [4, 9]: > 24 h
- initiation time of 80% inhibition against hypertensive reaction by angiotensin I [4, 9]: five
- duration of effect (inhibition of hypertensive reactivity by angiotensin I) [4, 10]: > 24 h
- initiation time of 80% inhibition against hypertensive reactivity by angiotensin I ([4]; Example 4 tape, 9 mg as compound (I)/rat, abdominal skin 6 cm^2): five
- inhibition against hypertensive reactivity by angiotensin I ([4]; Example 4 tape, 9 mg as compound (I)/rat, five hours after administration): 80%
